Reference: PubChem BioAssay AID2060495 (Molecular Pharmacology Branch, DTP, NCI, 2025)

Tested on: 521955-158-R2-J5-PDC complex spheroid viability
Assay: Anticancer human tumor 521955-158-R2-J5-PDC patient-derived pancreatic carcinoma cell line growth inhibition [GQUAD]
Details: for IC50: curve of first compound; for viability, T/C: stronger effect = lower value
Excerpt: DNA G-quadruplex Stabilizer Agents in Combinations in Complex Spheroids
A high-throughput screen of multi-cell type tumor spheroids was designed to identify active combinations of DNA G-quadruplex stabilizer agents and targeted small molecules. Complex spheroids include a stromal component modeled by human endothelial cells (HUVEC) and fibroblasts modeled by human mesenchymal stem cells (MSCs). The concentration ranges selected for each drug and investigational agent were based upon clinically achievable concentrations if the clinical Cmax of the agent was known.
Compounds. The drugs and investigational agents: pidnarulex (CX-5461; NSC782164), APTO-253 (NSC789042), BRACO-19 (NSC847499), peposertib (NSC802822), ceralasertib (NSC780249), elimusertib (NSC800525), camonsertib (NSC841442), AZD-1390 (NSC803789), olaparib (NSC753686), talazoparib (NSC767125), ART-558 (NSC835418), sotorasib (NSC818433), MRTX-1133 (NSC836407), SN-38 (NSC673596), topotecan (NSC609699), etoposide (NSC141540), doxorubicin (NSC123127), gemcitabine (NSC613327), 5-fluorouracil (NSC19893), paclitaxel (NSC125973), vemurafenib (NSC761431), panobinostat (NSC761190), R-306465 (JNJ-16241199; NSC773264), adavosertib (NSC754352), TP-3654 (NSC805149), carboplatin (NSC241240), KSQ-4279 (NSC840948), and staurosporine (NSC755774) were obtained from the National Cancer Institute (NCI) Developmental Therapeutics Program Chemical Repository (34). The FDA-approved anticancer drug set is available from the NCI Developmental Therapeutics Program. […] The stock solutions were prepared in dimethyl sulfoxide (DMSO, Sigma-Aldrich, St. Louis, MO, cat. D2650) at 800-fold the tested concentration and stored at -70 degrees C prior to their use. All drugs and investigational agents were tested over a range starting from a high concentration at or near the clinical Cmax and decreasing in half-log increments. If the clinical Cmax for an agent had not been determined, the highest concentration tested was 10 microM.
2.3 Cell Culture. All cells were maintained in an incubator at 37 degrees C and 5% CO2 with 95% humidity. The PDC lines were cultured according to standard operating procedures established by the NCI PDMR. All PDCs were thawed and cultured in Matrigel-coated flasks prepared with a working solution of 1X Ham's F-12 nutrient mix, without supplementation (Invitrogen, cat. 11765054), 100 U/mL penicillin-streptomycin (Invitrogen, cat. 15140122), and 2.5% Matrigel (Corning Inc., cat. 354248) for the first three passages. The 857933-349-R-J2-PDC line was cultured in 6C/Colon 1B media, which includes advanced DMEM/F-12 (Thermo Fisher Scientific, cat. 12634028), 10 mM HEPES (Thermo Fisher Scientific, cat. 15630080), 1X GlutaMAX supplement (Thermo Fisher Scientific, cat. 35050061), 0.1 mg/mL primocin (InvivoGen, cat. ant-pm-2), 10% defined fetal bovine serum, heat inactivated (HyClone Laboratories Inc., cat. SH30070.03HI), 50% L-WRN conditioned media (ATCC, cat. CRL-3276), 1.25 mM N-Acetyl-L-cysteine (Sigma-Aldrich, cat. A9165), 10 mM nicotinamide (Sigma-Aldrich, cat. N0636), 1X B-27 supplement (Thermo Fisher Scientific, cat. 17504044), 1X N-2 supplement (Thermo Fisher Scientific, cat. 17502048), 10 microM Y-27632 dihydrochloride (Tocris Bioscience, cat. 1254), and 50 ng/mL human EGF recombinant protein (Thermo Fisher Scientific, cat. PHG0311). The 485176-168-R4-J1-PDC line was cultured in Panc media, which includes all 6C/Colon 1B media components plus 100 ng/mL human FGF-10 (Thermo Fisher Scientific, cat. 100-26), 500 nM SB-431542 (Selleckchem, cat. S1067), and gastrin (Tocris, cat. 3006).
[…]

[1] = second compound 0.0316 µM, first compound 0.0316 µM
[2] = second compound 0.0316 µM, first compound 0.1 µM
[3] = second compound 0.0316 µM, first compound 0.316 µM
[4] = second compound 0.0316 µM, first compound 1 µM
[5] = second compound 0.0316 µM, first compound 3.16 µM
[6] = second compound 0.0316 µM, first compound 10 µM
[7] = second compound 0.1 µM, first compound 0.0316 µM
[8] = second compound 0.1 µM, first compound 0.1 µM
[9] = second compound 0.1 µM, first compound 0.316 µM
[10] = second compound 0.1 µM, first compound 1 µM
[11] = second compound 0.1 µM, first compound 3.16 µM
[12] = second compound 0.1 µM, first compound 10 µM
[13] = second compound 0.316 µM, first compound 0.0316 µM
[14] = second compound 0.316 µM, first compound 0.1 µM
[15] = second compound 0.316 µM, first compound 0.316 µM
[16] = second compound 0.316 µM, first compound 1 µM
[17] = second compound 0.316 µM, first compound 3.16 µM
[18] = second compound 0.316 µM, first compound 10 µM
[19] = second compound 1 µM, first compound 0.0316 µM
[20] = second compound 1 µM, first compound 0.1 µM
[21] = second compound 1 µM, first compound 0.316 µM
[22] = second compound 1 µM, first compound 1 µM
[23] = second compound 1 µM, first compound 3.16 µM
[24] = second compound 1 µM, first compound 10 µM
[25] = second compound 3.16 µM, first compound 0.0316 µM
[26] = second compound 3.16 µM, first compound 0.1 µM
[27] = second compound 3.16 µM, first compound 0.316 µM
[28] = second compound 3.16 µM, first compound 1 µM
[29] = second compound 3.16 µM, first compound 3.16 µM
[30] = second compound 3.16 µM, first compound 10 µM
[31] = second compound 10 µM, first compound 0.0316 µM
[32] = second compound 10 µM, first compound 0.1 µM
[33] = second compound 10 µM, first compound 0.316 µM
[34] = second compound 10 µM, first compound 1 µM
[35] = second compound 10 µM, first compound 3.16 µM
[36] = second compound 10 µM, first compound 10 µM
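Note: spheroids exposed to agents for one week before reading.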
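Throughout, for viability, T/C: 100% = DMSO vehicle control viability.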

CC(C)n1c(=O)n(C)c2cnc3cc(F)c(-c4ccc(OCCCN5CCCCC5)nc4)cc3c21 + CN(C)c1ccc(Nc2c3ccc(NC(=O)CCN4CCCC4)cc3nc3cc(NC(=O)CCN4CCCC4)ccc23)cc1
IC50 (second compound 0.0316 µM): > 10 µM | IC50 (second compound 0.1 µM): > 10 µM | IC50 (second compound 0.316 µM): > 10 µM | IC50 (second compound 1 µM): > 10 µM | IC50 (second compound 3.16 µM): 8.35 µM | IC50 (second compound 10 µM): 0.288 µM | viability, T/C [1]: 117% | viability, T/C [2]: 108% | viability, T/C [3]: 110% | viability, T/C [4]: 93.5% | viability, T/C [5]: 115% | viability, T/C [6]: 109% | viability, T/C [7]: 98.6% | viability, T/C [8]: 105% | viability, T/C [9]: 101% | viability, T/C [10]: 95.3% | viability, T/C [11]: 116% | viability, T/C [12]: 106% | viability, T/C [13]: 101% | viability, T/C [14]: 103% | viability, T/C [15]: 91% | viability, T/C [16]: 107% | viability, T/C [17]: 115% | viability, T/C [18]: 85.2% | viability, T/C [19]: 112% | viability, T/C [20]: 90.2% | viability, T/C [21]: 77% | viability, T/C [22]: 96.8% | viability, T/C [23]: 97.5% | viability, T/C [24]: 86% | viability, T/C [25]: 101% | viability, T/C [26]: 81% | viability, T/C [27]: 63.6% | viability, T/C [28]: 63.7% | viability, T/C [29]: 55.1% | viability, T/C [30]: 46.7% | viability, T/C [31]: 64% | viability, T/C [32]: 57% | viability, T/C [33]: 51.2% | viability, T/C [34]: 34.8% | viability, T/C [35]: 22% | viability, T/C [36]: 5.89%

CC1COCCN1c1cc(-c2ccnn2C)c2ccnc(-c3ccn[nH]3)c2n1 (centres undefined) + CN(C)c1ccc(Nc2c3ccc(NC(=O)CCN4CCCC4)cc3nc3cc(NC(=O)CCN4CCCC4)ccc23)cc1
IC50 (second compound 0.0316 µM): 0.0661 µM | IC50 (second compound 0.1 µM): 0.0546 µM | IC50 (second compound 0.316 µM): 0.0557 µM | IC50 (second compound 1 µM): 0.0527 µM | IC50 (second compound 3.16 µM): 0.0526 µM | IC50 (second compound 10 µM): 0.0326 µM | viability, T/C [1]: 86.1% | viability, T/C [2]: 30.1% | viability, T/C [3]: 19.8% | viability, T/C [4]: 20.6% | viability, T/C [5]: 26.6% | viability, T/C [6]: 33.5% | viability, T/C [7]: 66.2% | viability, T/C [8]: 33.7% | viability, T/C [9]: 21.2% | viability, T/C [10]: 20.9% | viability, T/C [11]: 26.8% | viability, T/C [12]: 40.1% | viability, T/C [13]: 69.6% | viability, T/C [14]: 31.2% | viability, T/C [15]: 15.5% | viability, T/C [16]: 19.8% | viability, T/C [17]: 31.2% | viability, T/C [18]: 39.2% | viability, T/C [19]: 66.5% | viability, T/C [20]: 31.1% | viability, T/C [21]: 16% | viability, T/C [22]: 18.4% | viability, T/C [23]: 34.4% | viability, T/C [24]: 30.2% | viability, T/C [25]: 68% | viability, T/C [26]: 28.4% | viability, T/C [27]: 17.4% | viability, T/C [28]: 17.5% | viability, T/C [29]: 25.1% | viability, T/C [30]: 33.6% | viability, T/C [31]: 50.1% | viability, T/C [32]: 36% | viability, T/C [33]: 21.6% | viability, T/C [34]: 23.8% | viability, T/C [35]: 23.2% | viability, T/C [36]: 26.6%
